Measurements from patent US20230172923A1, “METHODS OF TREATING CYTOKINE-RELATED ADVERSE EVENTS” (BRISTOL-MYERS SQUIBB COMPANY, priority 2020, published 2023).

What was measured:
Assay type in all cases: cell-based, human
[1] = tested on: IL-6; experiment: LPS-induced IL-6 secretion from isolated monocytes (MSD); conditions: overnight (~17 hours) 1000 nM lenalidomide, 100 nM pomalidomide, 10 nM iberdomide or 1 nM Compound 1; LPS 4 hours
Procedure: Monocytes from healthy volunteers were seeded at a concentration of 1×10^6 cells/ml and treated with the indicated concentration of IMiD/CELMoD agents overnight (~17 hours). The next morning, the monocytes were incubated with the indicated concentration of LPS for 4 hours, before IL-6 levels in the supernatant were assessed using an MSD assay.
eripheral blood mononuclear cells (PBMCs) were isolated from the blood of four healthy human donors by Ficoll cell separation, and then monocytes were isolated from these PBMCs by negative selection. The enriched monocytes were seeded at a concentration of 1×10^6 cells/ml and incubated overnight (~17 hours) with 1000 nM lenalidomide, 100 nM pomalidomide, 10 nM iberdomide or 1 nM Compound 1, or control DMSO (0.001%), before stimulation with various concentrations of LPS for IL-6 secretion.
After 4 hours, the cell culture was spun down at 300 g for 5 minutes to remove cells, and the supernatant was subjected to Meso Scale Discovery (MSD) analysis to quantify secreted IL-6.

[2] = tested on: IL-6; experiment: LPS-induced IL-6 secretion from isolated macrophages (M0) (MSD); conditions: overnight (~17 hours) 1000 nM lenalidomide, 100 nM pomalidomide, 10 nM iberdomide or 1 nM Compound 1; then LPS
Procedure: Monocytes from healthy volunteers were seeded at a concentration of 3×10^5 cells/ml for 4 days with RPMI 1640 media containing M-CSF (50 ng/mL) (50% media replaced after 2 days) to obtain naive macrophages (M0). At the end of day 4, macrophages were treated with the indicated concentration of IMiD/CELMoD agents overnight (~17 hours). The next morning, the macrophages were stimulated with the indicated concentration of LPS for 8 hours, before IL-6 levels in the supernatant were assessed using an MSD assay.
Peripheral blood mononuclear cells (PBMCs) were isolated from the blood of two healthy human donors by Ficoll cell separation, and then monocytes were isolated from these PBMCs by positive selection using MACS […] magnetic microbeads. The isolated monocytes were seeded at a concentration of 3×10^5 cells/ml and incubated for 4 days with RPMI 1640 media containing M-CSF (50 ng/mL) (50% media replaced after 2 days) to obtain naive macrophages (M0). At the end of day 4, the macrophages were incubated overnight (~17 hours) with 1000 nM lenalidomide, 100 nM pomalidomide, 10 nM iberdomide or 1 nM Compound 1, or control DMSO (0.001%), before stimulation with various concentrations of LPS for IL-6 secretion.
After 6 hours, the cell culture was spun down at 300 g for 5 minutes to remove cells, and the supernatant was subjected to MSD analysis to quantify secreted IL-6.

[3] = tested on: TNF-alpha; experiment: LPS-induced TNF-alpha secretion from PBMCs, overnight pre-treatment (MSD); conditions: overnight 1000 nM lenalidomide, 100 nM pomalidomide, 10 nM iberdomide or 1 nM Compound 1; LPS 24 hours
Procedure: (§1) Fresh PBMCs isolated from healthy volunteers were seeded at a concentration of 1×10^6 cells/ml and treated with the indicated concentration of IMiD drugs/CELMoD agents or DMSO overnight before stimulation with the indicated concentration of LPS. After 24 hours, the cell culture media was collected and IL-6, TNF-alpha and IL1-beta levels in the supernatant were assessed using an MSD assay. ULOQ = Upper limit of quantification.
(§2) Fresh peripheral blood mononuclear cells (PBMCs) were isolated from the blood (buffy coat) of healthy human volunteers by Ficoll based cell separation. The isolated PBMCs were seeded at a concentration of 1×10^6 cells/ml and treated with 1000 nM lenalidomide, 100 nM pomalidomide, 10 nM iberdomide, 1 nM Compound 1 (CC-92480) or control DMSO, overnight (~17 hours). The next morning, the PBMCs were stimulated with various concentrations of LPS (Lipopolysaccharides from Escherichia coli O111:B4).
(§3) After 24 hours, the cell culture media was collected from the control and stimulated cells, spun down at 300 g for 5 minutes to remove cells and the supernatant was subjected to cytokine analysis to quantify secreted levels of IL-6, TNF-alpha (TNF-α) and IL1-beta (IL-1β) using an MSD assay (see e.g. FIGS. 8A-C).

[4] = tested on: IL1-beta; experiment: LPS-induced IL1-beta secretion from PBMCs, overnight pre-treatment (MSD); conditions: overnight 1000 nM lenalidomide, 100 nM pomalidomide, 10 nM iberdomide or 1 nM Compound 1; LPS 24 hours
Procedure: as §1, §2, §3

[5] = tested on: IL-6; experiment: LPS-stimulated PBMC cytokine production, multiplex cytokine analysis: IL-6; conditions: Homo sapiens, PBMC, PBMC 2×10^6 cells/ml, compound 1 hour, then 1 ng/ml LPS 18 hours
Procedure: (§4) Peripheral blood mononuclear cells (PBMCs) were isolated from the blood of healthy human donors by Ficoll cell separation. […] Supernatant samples were subjected to multiplex cytokine analysis (Luminex IS100 instrument) to quantify secreted levels of IL-6, IL-8, IL1-beta (IL-1β), GM-CSF, MDC, MIP-1alpha (MIP-1α), MIP-1beta (MIP-1β) and TNF-alpha (TNF-α) (see e.g. FIGS. 7A-C). IC50 (half maximal inhibitory concentration) values were calculated to measure the potency of each IMiD compound in inhibiting LPS-stimulated secretion of each cytokine (see Table 25).

[6] = tested on: IL-1β; experiment: LPS-stimulated PBMC cytokine production, multiplex cytokine analysis: IL-1β; conditions: Homo sapiens, PBMC, PBMC 2×10^6 cells/ml, compound 1 hour, then 1 ng/ml LPS 18 hours
Procedure: as §4

[7] = tested on: MIP-1α; experiment: LPS-stimulated PBMC cytokine production, multiplex cytokine analysis: MIP-1α; conditions: Homo sapiens, PBMC, PBMC 2×10^6 cells/ml, compound 1 hour, then 1 ng/ml LPS 18 hours
Procedure: Peripheral blood mononuclear cells (PBMCs) were isolated from the blood of healthy human donors by Ficoll cell separation. The PBMCs were seeded at a concentration of 2×10^6 cells/ml and treated for 1 hour at 37° C. with various concentrations of IMiD compounds or control DMSO (0.25%), before stimulation with 1 ng/ml LPS for 18 hours at 37° C.
Supernatant samples were subjected to multiplex cytokine analysis (Luminex IS100 instrument) to quantify secreted levels of IL-6, IL-8, IL1-beta (IL-1β), GM-CSF, MDC, MIP-1alpha (MIP-1α), MIP-1beta (MIP-1β) and TNF-alpha (TNF-α) (see e.g. FIGS. 7A-C).
IC50 (half maximal inhibitory concentration) values were calculated to measure the potency of each IMiD compound in inhibiting LPS-stimulated secretion of each cytokine (see Table 25).

N#Cc1ccc(N2CCN(Cc3ccc(COc4cccc5c4CN(C4CCC(=O)NC4=O)C5=O)cc3)CC2)c(F)c1 (stereo not drawn) [Compound 1, 4-(4-(4-(((2-(2,6-dioxopiperidin-3-yl)-1-oxoisoindolin-4-yl)oxy)methyl)benzyl)piperazin-l-yl)-3-fluorobenzonitrile]
LPS-induced IL-6 secretion from monocytes [1]: diminished
LPS-induced IL-6 secretion from macrophages [2]: diminished
LPS-induced secretion of TNF-α from PBMCs [3]: reduces
LPS-induced secretion of IL-1β from PBMCs [4]: reduces

O=C1CC[C@H](N2Cc3c(OCc4ccc(CN5CCOCC5)cc4)cccc3C2=O)C(=O)N1 [Iberdomide, (S)-3-(4-((4-(morpholinomethyl)benzyl)oxy)-1-oxoisoindolin-2-yl)piperidine-2,6-dione]
IC50 [5]: 0.0038 µM
IC50 [6]: 0.00046 µM
IC50 [7]: 0.028 µM
LPS-induced IL-6 secretion from monocytes [1]: diminished
LPS-induced IL-6 secretion from macrophages [2]: diminished
LPS-induced secretion of TNF-α from PBMCs [3]: reduces
LPS-induced secretion of IL-1β from PBMCs [4]: reduces

Nc1cccc2c1CN(C1CCC(=O)NC1=O)C2=O (stereo not shown) [Lenalidomide, 3-(4-amino-1-oxo-2,3-dihydro-1H-isoindol-2-yl) piperidine-2,6-dione]
IC50 [5]: 1.2 µM
IC50 [6]: 0.39 µM
IC50 [7]: > 10 µM
LPS-induced IL-6 secretion from monocytes [1]: diminished
LPS-induced IL-6 secretion from macrophages [2]: diminished
LPS-induced secretion of TNF-α from PBMCs [3]: reduces
LPS-induced secretion of IL-1β from PBMCs [4]: reduces

Nc1cccc2c1C(=O)N(C1CCC(=O)NC1=O)C2=O (stereo not shown) [Pomalidomide, 4-amino-2-(2,6-dioxopiperidine-3-yl)isoindoline-1,3-dione]
IC50 [5]: 0.059 µM
IC50 [6]: 0.047 µM
IC50 [7]: 0.23 µM
LPS-induced IL-6 secretion from monocytes [1]: diminished
LPS-induced IL-6 secretion from macrophages [2]: diminished
LPS-induced secretion of TNF-α from PBMCs [3]: reduces
LPS-induced secretion of IL-1β from PBMCs [4]: reduces
